According to patent publication US20170121315A1, “HETEROBICYCLICALLY SUBSTITUTED 4-OXOBUTANE ACID DERIVATIVES AND USE THEREOF” (priority 2014, published 2017):

What was measured:
Format in all cases: biochemical
[1] = target: T1, human macrophage elastase (HME/hMMP-12) (Homo sapiens, UniProt P39900); test: In vitro HME inhibition test (standard or high-sensitivity); conditions: in some cases mean values, rounded to two significant figures
T1 construct: purchased R&D Systems 917-MP
Method in brief: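 Autoactivated HME (0.5 nM; high-sensitivity format 0.05 nM, ~16 h) with 5 μM quenched Mca-PLGLEEA-Dap(Dnp)-NH2 substrate in HEPES pH 7.4, NaCl, CaCl2, ZnCl2, EDTA, Brij buffer, 2 h at 37° C. Fluorescence at ex 323/em 393 nm; IC50 from signal versus concentration.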

MMP-1 = target: T2, MMP-1 (Homo sapiens, UniProt P03956); test: In vitro MMP-1 inhibition test; conditions: human MMP-1
T2 construct: purchased R&D Systems 901-MP
T2 sequence (P03956 100-469): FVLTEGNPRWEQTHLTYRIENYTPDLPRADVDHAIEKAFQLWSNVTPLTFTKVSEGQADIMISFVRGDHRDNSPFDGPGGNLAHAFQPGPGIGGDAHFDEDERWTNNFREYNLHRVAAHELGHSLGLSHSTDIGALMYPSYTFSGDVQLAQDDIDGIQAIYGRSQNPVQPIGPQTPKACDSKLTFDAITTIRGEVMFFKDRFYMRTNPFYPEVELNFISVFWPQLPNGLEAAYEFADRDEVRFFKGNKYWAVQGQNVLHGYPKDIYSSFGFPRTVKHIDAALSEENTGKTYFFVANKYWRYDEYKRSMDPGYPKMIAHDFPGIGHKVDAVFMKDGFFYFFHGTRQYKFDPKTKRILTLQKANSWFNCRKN
From the text: (§1) The MMP-mediated amidolytic cleavage of a suitable peptide substrate leads to an increase in fluorescent light here too. The signal intensity of the fluorescent light is directly proportional to the enzyme activity. The active concentration of a test compound at which half the enzyme is inhibited (50% signal intensity of the fluorescent light) is reported as the IC50 value.
(§2) Recombinant MMP-1 (R&D Systems, 901-MP) is chemically activated in accordance with the manufacturer's instructions using APMA. 1 μl of the test compound to be analysed (as a solution in DMSO, suitable concentrations e.g. 1 nM to 30 μM) is pipetted into 24 μl of activated enzyme (final concentration e.g. 2 nM) in reaction buffer (50 mM Tris/HCl pH 7.5, 10 mM CaCl2, 150 mM NaCl, 0.05% Brij®-35) in a white 384-hole microtiter plate (MTP). The enzymatic reaction is started by adding the intramolecularly quenched Mca-Pro-Leu-Gly-Leu-Dpa(Dnp)-Ala-Arg-NH2 substrate (final concentration e.g. 10 μM; R&D Systems, ES-001), so as to result in a total test volume of 50 μl. The course of the MMP-1 reaction is measured by measuring the fluorescence intensity (excitation 320 nm, emission 410 nm) over a suitable period of time (e.g. over 120 min at a temperature of 32° C.).

MMP-7 = target: T3, MMP-7 (Homo sapiens, UniProt P09237); test: In vitro MMP-7 inhibition test; conditions: human MMP-7
T3 construct: purchased R&D Systems 907-MP
T3 sequence (P09237 95-267): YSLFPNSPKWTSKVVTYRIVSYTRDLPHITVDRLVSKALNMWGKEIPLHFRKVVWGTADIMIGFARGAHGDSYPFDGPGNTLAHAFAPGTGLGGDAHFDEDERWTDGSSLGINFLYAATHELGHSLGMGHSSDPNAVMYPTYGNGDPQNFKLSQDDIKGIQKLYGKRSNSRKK
From the text: as §1
as §2, with “Recombinant MMP-7 (from R&D” for “Recombinant MMP-1 (R&D”, “Systems, 907-MP)” for “Systems, 901-MP)”, “e.g. 0.5” for “e.g. 2”, “the MMP-7” for “the MMP-1”

MMP-13 = target: T4, MMP-13 (Homo sapiens, UniProt P45452); test: In vitro MMP-13 inhibition test; conditions: human MMP-13
T4 construct: purchased R&D Systems 511-MP
From the text: as §1
as §2, with “Recombinant MMP-13” for “Recombinant MMP-1”, “Systems, 511-MP)” for “Systems, 901-MP)”, “e.g. 0.1” for “e.g. 2”, “the MMP-13” for “the MMP-1”

T1 sequence (P39900 106-470): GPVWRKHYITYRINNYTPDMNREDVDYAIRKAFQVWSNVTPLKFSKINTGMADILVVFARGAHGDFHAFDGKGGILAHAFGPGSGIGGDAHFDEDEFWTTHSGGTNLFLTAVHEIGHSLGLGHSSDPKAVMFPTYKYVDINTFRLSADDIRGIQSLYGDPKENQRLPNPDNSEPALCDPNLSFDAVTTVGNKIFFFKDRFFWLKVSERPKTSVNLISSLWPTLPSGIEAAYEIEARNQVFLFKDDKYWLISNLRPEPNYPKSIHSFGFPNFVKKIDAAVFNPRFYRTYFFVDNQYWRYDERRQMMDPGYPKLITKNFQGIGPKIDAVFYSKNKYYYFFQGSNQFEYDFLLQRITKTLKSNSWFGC

Compound O=C(CC(CCn1nnc2ccccc2c1=O)C(=O)O)c1onc2cc(OCc3ccccc3)ccc12 (racemic) [Example 156, (+/−)-4-[6-(Benzyloxy)-2,1-benzoxazol-3-yl]-4-oxo-2-[2-(4-oxo-1,2,3-benzotriazin-3(4H)-yl)ethyl]butanoic acid] has an IC50 [1] of 2.4 nM, an IC50 (MMP-1) of over 40000 nM and an IC50 (MMP-7) of over 40000 nM. It also gave an IC50 (MMP-13) of 2200 nM.
For O=C(O)[C@H]1[C@H](Cn2nnc3ccc(C(F)(F)F)cc3c2=O)CC[C@@H]1C(=O)c1cc2cc(OCCc3ccccc3)ccc2o1 (racemic) [Example 157, (+/−)-(1RS,2SR,5RS)-2-{[4-Oxo-6-(trifluoromethyl)-1,2,3-benzotriazin-3(4H)-yl]methyl}-5-{[5-(2-phenylethoxy)-1-benzofur-2-yl]carbonyl}cyclopentanecarboxylic acid (racemate)], the IC50 [1] was 0.055 nM, the IC50 (MMP-1) was over 40000 nM and the IC50 (MMP-7) was 160 nM. It also gave an IC50 (MMP-13) of 290 nM.
Work on CCCCCOc1ccc2c(C(=O)CC(CCn3nnc4ccccc4c3=O)C(=O)O)coc2c1 (single isomer, unassigned) [Example 91, 4-Oxo-2-[2-(4-oxo-1,2,3-benzotriazin-3(4H)-yl)ethyl]-4-[6-(pentyloxy)-1-benzofur-3-yl]butanoic acid] yielded an IC50 [1] of 0.23 nM, an IC50 (MMP-1) of over 40000 nM and an IC50 (MMP-7) of over 40000 nM. For the same compound, the IC50 (MMP-13) was 370 nM.
O=C(CC(CCn1nnc2ccccc2c1=O)C(=O)O)c1cc2cc(OCCc3ccccc3)ccc2o1 (single isomer, unassigned; (+)) [Example 21, (+)-4-Oxo-2-[2-(4-oxo-1,2,3-benzotriazin-3(4H)-yl)ethyl]-4-[5-(2-phenylethoxy)-1-benzofur-2-yl]butanoic acid] showed an IC50 [1] of 2.2 nM, an IC50 (MMP-1) of over 40000 nM and an IC50 (MMP-7) of over 40000 nM. The IC50 (MMP-13) was 1800 nM.
Compound O=C(CC(CCn1nnc2ccccc2c1=O)C(=O)O)c1cc2cc(OCc3ccc(F)cc3)ccc2o1 (single isomer, unassigned; (+)) [Example 23, (+)-4-{5-[(4-Fluorobenzyl)oxy]-1-benzofur-2-yl}-4-oxo-2-[2-(4-oxo-1,2,3-benzotriazin-3(4H)-yl)ethyl]butanoic acid] has an IC50 [1] of 0.81 nM, an IC50 (MMP-1) of over 40000 nM and an IC50 (MMP-7) of over 40000 nM. For the same compound, the IC50 (MMP-13) was 5300 nM.
In the case of O=C(CC(CCn1nnc2ccccc2c1=O)C(=O)O)c1cc2cc(OCc3ccccc3)ccc2o1 (single isomer, unassigned; (+)) [Example 30, (+)-4-[5-(Benzyloxy)-1-benzofur-2-yl]-4-oxo-2-[2-(4-oxo-1,2,3-benzotriazin-3(4H)-yl)ethyl]butanoic acid], the IC50 [1] is reported as 0.99 nM, the IC50 (MMP-1) is reported as over 40000 nM and the IC50 (MMP-7) is reported as over 40000 nM. The IC50 (MMP-13) was 10000 nM.
For NC(=O)c1cccc(COc2ccc3oc(C(=O)CC(CCn4nnc5ccccc5c4=O)C(=O)O)cc3c2)c1 (single isomer, unassigned; (+)) [Example 34, (+)-4-{5-[(3-Carbamoylbenzyl)oxy]-1-benzofur-2-yl}-4-oxo-2-[2-(4-oxo-1,2,3-benzotriazin-3(4H)-yl)ethyl]butanoic acid], the IC50 [1] was 1.1 nM, the IC50 (MMP-1) was over 40000 nM and the IC50 (MMP-7) was 25000 nM. For the same compound, the IC50 (MMP-13) was 1600 nM.
In the case of CCCCCCCOc1ccc2cc(C(=O)CC(CCn3nnc4ccccc4c3=O)C(=O)O)oc2c1 (single isomer, unassigned; (+)) [Example 69, (+)-4-[6-(Heptyloxy)-1-benzofur-2-yl]-4-oxo-2-[2-(4-oxo-1,2,3-benzotriazin-3(4H)-yl)ethyl]butanoic acid acid], the IC50 [1] is reported as 1 nM, the IC50 (MMP-1) is reported as over 40000 nM and the IC50 (MMP-7) is reported as over 40000 nM. It also gave an IC50 (MMP-13) of 3600 nM.
Work on O=C(CC(CCn1nnc2ccccc2c1=O)C(=O)O)c1coc2cc(OCC3CCCC3)ccc12 (single isomer, unassigned; (+)) [Example 80, (+)-4-[6-(Cyclopentylmethoxy)-1-benzofur-3-yl]-4-oxo-2-[2-(4-oxo-1,2,3-benzotriazin-3(4H)-yl)ethyl]butanoic acid] yielded an IC50 [1] of 0.46 nM, an IC50 (MMP-1) of over 40000 nM and an IC50 (MMP-7) of over 40000 nM. The IC50 (MMP-13) was 3600 nM.
In the case of O=C(CC(CCn1nnc2ccccc2c1=O)C(=O)O)c1coc2cc(OCC3CCCCC3)ccc12 (single isomer, unassigned; (+)) [Example 82, (+)-4-[6-(Cyclohexylmethoxy)-1-benzofur-3-yl]-4-oxo-2-[2-(4-oxo-1,2,3-benzotriazin-3(4H)-yl)ethyl]butanoic acid], the IC50 [1] is reported as 0.089 nM, the IC50 (MMP-1) is reported as over 40000 nM and the IC50 (MMP-7) is reported as over 40000 nM. The IC50 (MMP-13) was 1300 nM.
In the case of CCCCCCOc1ccc2c(C(=O)CC(CCn3nnc4ccccc4c3=O)C(=O)O)coc2c1 (single isomer, unassigned; (+)) [Example 100, (+)-4-[6-(Hexyloxy)-1-benzofur-3-yl]-4-oxo-2-[2-(4-oxo-1,2,3-benzotriazin-3(4H)-yl)ethyl]butanoic acid], the IC50 [1] is reported as 0.18 nM, the IC50 (MMP-1) is reported as over 40000 nM and the IC50 (MMP-7) is reported as over 40000 nM. The IC50 (MMP-13) was 140 nM.
Work on O=C(CC(CCn1nnc2ccccc2c1=O)C(=O)O)c1cc2ccc(OCC3CC3)cc2s1 (single isomer, unassigned; (+)) [Example 112, (+)-4-[6-(Cyclopropylmethoxy)-1-benzothiophen-2-yl]-4-oxo-2-[2-(4-oxo-1,2,3-benzotriazin-3(4H)-yl)ethyl]butanoic acid] yielded an IC50 [1] of 2.2 nM, an IC50 (MMP-1) of over 40000 nM and an IC50 (MMP-7) of 3200 nM. For the same compound, the IC50 (MMP-13) was 1300 nM.
O=C(CC(CCn1nnc2ccccc2c1=O)C(=O)O)c1cc2cc(OCCCC(F)(F)F)ccc2o1 (single isomer, unassigned; enantiomer 2) [Example 13, (+)-4-Oxo-2-[2-(4-oxo-1,2,3-benzotriazin-3(4H)-yl)ethyl]-4-[5-(4,4,4-trifluorobutoxy)-1-benzofur-2-yl]butanoic acid (enantiomer 2)] gave an IC50 [1] of 6.1 nM, an IC50 (MMP-1) of over 40000 nM and an IC50 (MMP-7) of over 40000 nM. It also gave an IC50 (MMP-13) of 4600 nM.
Work on O=C(C[C@H](CCn1nnc2ccccc2c1=O)C(=O)O)c1noc2cc(OCC3CCOCC3)ccc12 (single isomer, unassigned; enantiomer 2) [Example 135] yielded an IC50 [1] of 0.16 nM, an IC50 (MMP-1) of over 40000 nM and an IC50 (MMP-7) of over 40000 nM. It also gave an IC50 (MMP-13) of 1500 nM.
